Measured values from ChEMBL document CHEMBL3046502, “In vitro antimicrobial and antitubercular studies of novel 6-substituted (pyrrolidin-1-yl)-2(1H)-pyridinones” (2012).
Values after ≈ are worked out from the molar mass of the structure shown.

Key:
Format in all cases: functional
Staphylococcus aureus = experiment: Antimicrobial activity against Staphylococcus aureus MTCC 96 by broth microdilution method
Pseudomonas aeruginosa = experiment: Antimicrobial activity against Pseudomonas aeruginosa MTCC 2488 by broth microdilution method
Aspergillus niger = experiment: Antimicrobial activity against Aspergillus niger MTCC 282
Escherichia coli = experiment: Antimicrobial activity against Escherichia coli MTCC 442 by broth microdilution method
Candida albicans = experiment: Antimicrobial activity against Candida albicans MTCC 227
Streptococcus pyogenes = experiment: Antimicrobial activity against Streptococcus pyogenes MTCC 443 by broth microdilution method
Aspergillus clavatus = experiment: Antimicrobial activity against Aspergillus clavatus MTCC 1323
[1] = system: Mycobacterium tuberculosis; experiment: Antimicrobial activity against Mycobacterium tuberculosis H37Rv; details: for MIC: Mycobacterium tuberculosis, H37Rv

| Structure (SMILES) | MIC (Staphylococcus aureus) | MIC (Pseudomonas aeruginosa) | MIC (Aspergillus niger) | MIC (Escherichia coli) | MIC (Candida albicans) | MIC (Streptococcus pyogenes) | MIC (Aspergillus clavatus) | inhibition (INH) [1] | MIC [1] |
| --- | --- | --- | --- | --- | --- | --- | --- | --- | --- |
| COc1ccc(-c2cc(N3CCCC3)n(-c3cccc(Cl)c3)c(=O)c2CN2CCCC2)cc1 | 500 µg/mL (≈ 1080 µM) | 500 µg/mL (≈ 1080 µM) | 500 µg/mL (≈ 1080 µM) | 250 µg/mL (≈ 539 µM) | 500 µg/mL (≈ 1080 µM) | 500 µg/mL (≈ 1080 µM) | 1000 µg/mL (≈ 2160 µM) |  |  |
| COc1ccc(-c2cc(N3CCCC3)n(-c3cccc(Cl)c3)c(=O)c2Cn2cncn2)cc1 | 250 µg/mL (≈ 541 µM) | 100 µg/mL (≈ 216 µM) | 250 µg/mL (≈ 541 µM) | 100 µg/mL (≈ 216 µM) | 200 µg/mL (≈ 433 µM) | 200 µg/mL (≈ 433 µM) | 500 µg/mL (≈ 1080 µM) | 98% | 500 µg/mL (≈ 1080 µM) |
| COc1ccc(-c2cc(=O)n(-c3cccc(Cl)c3)c(N3CCCC3)c2/N=N/c2c(Cl)cc([N+](=O)[O-])c(Cl)c2Cl)cc1 | 200 µg/mL (≈ 316 µM) | 250 µg/mL (≈ 395 µM) | 1000 µg/mL (≈ 1580 µM) | 250 µg/mL (≈ 395 µM) | 250 µg/mL (≈ 395 µM) | 200 µg/mL (≈ 316 µM) | 1000 µg/mL (≈ 1580 µM) |  |  |
| COc1ccc(-c2cc(=O)n(-c3cccc(Cl)c3)c(N3CCCC3)c2/N=N/c2ccc(Cl)cc2[N+](=O)[O-])cc1 | 250 µg/mL (≈ 443 µM) | 500 µg/mL (≈ 886 µM) | 200 µg/mL (≈ 354 µM) | 250 µg/mL (≈ 443 µM) | 250 µg/mL (≈ 443 µM) | 250 µg/mL (≈ 443 µM) | 200 µg/mL (≈ 354 µM) | 98% | 500 µg/mL (≈ 886 µM) |
| COc1ccc(-c2cc(=O)n(-c3cccc(Cl)c3)c(N3CCCC3)c2/N=N/c2ccc([N+](=O)[O-])cc2Cl)cc1 | 200 µg/mL (≈ 354 µM) | 250 µg/mL (≈ 443 µM) | 500 µg/mL (≈ 886 µM) | 250 µg/mL (≈ 443 µM) | 500 µg/mL (≈ 886 µM) | 200 µg/mL (≈ 354 µM) | 500 µg/mL (≈ 886 µM) |  |  |
| COc1ccc(-c2cc(=O)n(-c3cccc(Cl)c3)c(N3CCCC3)c2/N=N/c2ccc(Cl)c(Cl)c2)cc1 | 200 µg/mL (≈ 361 µM) | 200 µg/mL (≈ 361 µM) | 500 µg/mL (≈ 903 µM) | 62.5 µg/mL (≈ 113 µM) | 100 µg/mL (≈ 181 µM) | 500 µg/mL (≈ 903 µM) | 1000 µg/mL (≈ 1810 µM) |  |  |
| COc1ccc(-c2cc(=O)n(-c3cccc(Cl)c3)c(N3CCCC3)c2/N=N/c2cc(Cl)ccc2Cl)cc1 | 500 µg/mL (≈ 903 µM) | 500 µg/mL (≈ 903 µM) | > 1000 µg/mL | 100 µg/mL (≈ 181 µM) | 1000 µg/mL (≈ 1810 µM) | 500 µg/mL (≈ 903 µM) | > 1000 µg/mL | 99% | 100 µg/mL (≈ 181 µM) |
| COc1ccc(-c2cc(=O)n(-c3cccc(Cl)c3)c(N3CCCC3)c2/N=N/c2ccc([N+](=O)[O-])cc2)cc1 | 500 µg/mL (≈ 943 µM) | 250 µg/mL (≈ 472 µM) | > 1000 µg/mL | 250 µg/mL (≈ 472 µM) | 500 µg/mL (≈ 943 µM) | 250 µg/mL (≈ 472 µM) | 500 µg/mL (≈ 943 µM) |  |  |
| COc1ccc(-c2cc(=O)n(-c3cccc(Cl)c3)c(N3CCCC3)c2/N=N/c2cccc([N+](=O)[O-])c2)cc1 | 250 µg/mL (≈ 472 µM) | 200 µg/mL (≈ 377 µM) | 500 µg/mL (≈ 943 µM) | 250 µg/mL (≈ 472 µM) | 500 µg/mL (≈ 943 µM) | 250 µg/mL (≈ 472 µM) | 500 µg/mL (≈ 943 µM) |  |  |
| COc1ccc(-c2cc(=O)n(-c3cccc(Cl)c3)c(N3CCCC3)c2/N=N/c2ccccc2[N+](=O)[O-])cc1 | 100 µg/mL (≈ 189 µM) | 200 µg/mL (≈ 377 µM) | 500 µg/mL (≈ 943 µM) | 200 µg/mL (≈ 377 µM) | 250 µg/mL (≈ 472 µM) | 100 µg/mL (≈ 189 µM) | 250 µg/mL (≈ 472 µM) |  |  |
| COc1ccc(-c2cc(=O)n(-c3cccc(Cl)c3)c(N3CCCC3)c2/N=N/c2ccc(C)cc2)cc1 | 200 µg/mL (≈ 401 µM) | 250 µg/mL (≈ 501 µM) | 250 µg/mL (≈ 501 µM) | 200 µg/mL (≈ 401 µM) | 250 µg/mL (≈ 501 µM) | 200 µg/mL (≈ 401 µM) | 500 µg/mL (≈ 1000 µM) |  |  |
| COc1ccc(-c2cc(=O)n(-c3cccc(Cl)c3)c(N3CCCC3)c2/N=N/c2cccc(C)c2)cc1 | 250 µg/mL (≈ 501 µM) | 250 µg/mL (≈ 501 µM) | 500 µg/mL (≈ 1000 µM) | 250 µg/mL (≈ 501 µM) | 500 µg/mL (≈ 1000 µM) | 200 µg/mL (≈ 401 µM) | 500 µg/mL (≈ 1000 µM) |  |  |
| COc1ccc(-c2cc(=O)n(-c3cccc(Cl)c3)c(N3CCCC3)c2/N=N/c2ccccc2C)cc1 | 500 µg/mL (≈ 1000 µM) | 500 µg/mL (≈ 1000 µM) | 1000 µg/mL (≈ 2000 µM) | 200 µg/mL (≈ 401 µM) | 250 µg/mL (≈ 501 µM) | 500 µg/mL (≈ 1000 µM) | 1000 µg/mL (≈ 2000 µM) |  |  |
| COc1ccc(-c2cc(=O)n(-c3cccc(Cl)c3)c(N3CCCC3)c2/N=N/c2ccc(Cl)cc2)cc1 | 500 µg/mL (≈ 963 µM) | 500 µg/mL (≈ 963 µM) | 500 µg/mL (≈ 963 µM) | 100 µg/mL (≈ 193 µM) | 100 µg/mL (≈ 193 µM) | 500 µg/mL (≈ 963 µM) | 500 µg/mL (≈ 963 µM) |  |  |
| COc1ccc(-c2cc(=O)n(-c3cccc(Cl)c3)c(N3CCCC3)c2/N=N/c2cccc(Cl)c2)cc1 | 100 µg/mL (≈ 193 µM) | 500 µg/mL (≈ 963 µM) | 500 µg/mL (≈ 963 µM) | 500 µg/mL (≈ 963 µM) | 250 µg/mL (≈ 481 µM) | 100 µg/mL (≈ 193 µM) | 500 µg/mL (≈ 963 µM) |  |  |
| COc1ccc(-c2cc(=O)n(-c3cccc(Cl)c3)c(N3CCCC3)c2/N=N/c2ccccc2Cl)cc1 | 250 µg/mL (≈ 481 µM) | 100 µg/mL (≈ 193 µM) | 500 µg/mL (≈ 963 µM) | 250 µg/mL (≈ 481 µM) | 250 µg/mL (≈ 481 µM) | 250 µg/mL (≈ 481 µM) | 250 µg/mL (≈ 481 µM) |  |  |
| COc1ccc(-c2cc(=O)n(-c3cccc(Cl)c3)c(N3CCCC3)c2/N=N/c2ccccc2)cc1 | 250 µg/mL (≈ 515 µM) | 500 µg/mL (≈ 1030 µM) | 250 µg/mL (≈ 515 µM) | 250 µg/mL (≈ 515 µM) | 500 µg/mL (≈ 1030 µM) | 250 µg/mL (≈ 515 µM) | 500 µg/mL (≈ 1030 µM) |  |  |
| COc1ccc(-c2cc(N3CCCC3)n(-c3cccc(Cl)c3)c(=O)c2/N=N/c2c(Cl)cc([N+](=O)[O-])cc2Cl)cc1 | 200 µg/mL (≈ 334 µM) | 250 µg/mL (≈ 417 µM) | 1000 µg/mL (≈ 1670 µM) | 250 µg/mL (≈ 417 µM) | 250 µg/mL (≈ 417 µM) | 200 µg/mL (≈ 334 µM) | 1000 µg/mL (≈ 1670 µM) |  |  |
